In patent publication US6428817B1, “Companion animal therapeutic treat” (priority 2001, dated 2002):

Columns and labels:
[1] = system: bovine nasal cartilage explants; experiment: Proteoglycan degradation in bovine nasal cartilage explants, basal and TNF alpha stimulated; assay for sulfated glycosaminoglycans; type: cell-based; details: EGCg 22 μM, 5 days culture, with or without recombinant human tumor necrosis factor alpha 3 nM
Procedure: See, Haqqi, et al., Proc. Natl. Acad. Sci., USA, 96:4524-29 (1999). […] Id. In an experiment, purified EGCg, from Sigma Chemical Supply, St. Louis, Mo., was placed with bovine nasal cartilage explants at a concentration of22 μM. This mixture was cultured for 5 days in the presence or absence of the pro-inflammatory cytokine, recombinant human tumor necrosis factor alpha at 3 nM. The inhibition of both the basal and stimulated protcoglycan degradation by EGCg was measured using a calorimetric assay for sulfated glycosaminoglycans. See, Farndale, et al., Biochem. Biophys. Acta, 4:883 (1986).

[2] = system: cartilage degradation; details: mammals; cited from earlier work

Q: Which “inhibition of basal and stimulated proteoglycan degradation (cartilage breakdown)” value [1] does the source give for epigallocatechin-3-gallate [EGCg] here?
A: potent inhibitor of cartilage breakdown

Q: What about the “inhibition of cartilage degradation” value [2] of the same substance?
A: inhibitor of cartilage degradation
